Source: patent publication US9617251B2, “Indanylaminopyridylcyclopropanecarboxylic acids, pharmaceutical compositions and uses thereof” (BOEHRINGER INGELHEIM INTERNATIONAL GMBH, priority 2015, dated 2017)
In brackets after ≈: the same amount, converted by molar mass.

How the values were obtained:
[1] = target: human GPR40 receptor (Homo sapiens, UniProt O14842); test: IP1 accumulation measurements using the IPOne assay system (1321N1 cells stably expressing human GPR40 receptor); format: cell-based; conditions: 1321N1 cells expressing human GPR40, 1 h stimulation at 37° C.
Description: IP1 accumulation measurements using the IPOne assay system—1321N1 cells stably expressing human GPR40 receptor (Euroscreen, Belgium) are seeded 24 h before the assay in white 384-well plates in culture medium containing 10% FCS, 1% Na-Pyruvate and 400 μg/mL G418. IP1 is assayed according to the manufacturer's description (Cisbio Bioassays, France). In brief, the assay is started by substitution of the culture medium by stimulation buffer (Hepes 10 mM, CaCl2 1 mM, MgCl2 0.5 mM, KCl 4.2 mM, NaCl 146 mM, glucose 5.5 mM and LiCl 50 mM, pH 7.4). Cells are stimulated for 1 h at 37° C., 5% CO2 by addition of the compounds that are diluted in stimulation buffer containing LiCl. Assays are stopped by adding HTRF-conjugates (IP1-d2 and Anti-IP1 cryptate Tb) and lysis buffer, provided by the manufacturer. After an incubation time of 1 h at room temperature plates are measured using an EnVision™, Perkin Elmer. The obtained fluorescence ratios at 665/615 […] are then used to calculate the pEC50 values using Assay Explorer 3.3 Software (Accelrys, Inc.) by interpolation using an IP1 reference curve and subsequent sigmoidal curve fitting allowing for a variable hill slope.

[2] = target: T1, cytochrome P450 2C9-isoenzyme (Homo sapiens, UniProt P11712); test: Inhibition of CYP-2C9 (hydroxylation of diclofenac, human liver microsomes); format: in vitro ADME; conditions: CYP-2C9, human liver microsomes, diclofenac 10 μM, 37° C.
T1 construct: from tissue; host or cells: human liver microsomes
Description: The inhibition of cytochrome P450 2C9-isoenzyme catalyzed hydroxylation of diclofenac by the test compound is assayed at 37° C. with human liver microsomes. All assays are carried out on a robotic system in 96 well plates. The final incubation volume contains TRIS buffer (0.1 M), MgCl2 (5 mM), human liver microsomes (0.1 mg/mL), diclofenac (10 μM) and the test compound at five different concentrations or no compound (high control) in duplicate (e.g., highest concentration 10-50 μM with subsequent serial 1:4 dilutions). Following a short preincubation period, reactions are started with the cofactor (NADPH, 1 mM) and stopped by cooling the incubation down to 8° C. and subsequently by addition of one volume of acetonitrile. An internal standard solution—the stable isotope ^13C6-hydroxydiclofenac—is added after quenching of incubations. Peak area analyte (=metabolite formed) and internal standard is determined by LC-MS/MS. The resulting peak area ratio analyte to internal standard in these incubations is compared to a control activity containing no test compound. Within each of the assay runs, the IC50 of a positive control inhibitor (sulfaphenazole) is determined. Experimental IC50 values are calculated by least square regression according to the following equation: % control activity=(100% control activity/(1+(I/IC50)S))−B with I=inhibitor concentration; S=slope factor; B=background activity (lower plateau of the inhibition curve)
(§1) If the inhibition of the reaction is already >50% at the lowest concentration of the test compound, the IC50 is assigned “<lowest concentration tested” (usually <0.4 μM). If the inhibition of the reaction is still <50% at the highest concentration of the test compound, the IC50 is assigned “>highest concentration tested” (usually >50 μM).

[3] = target: T2, cytochrome P450 2C8-isoenzyme (Homo sapiens, UniProt P10632); test: Inhibition of CYP-2C8 (deethylation of amodiaquine, human liver microsomes); format: in vitro ADME; conditions: CYP-2C8, human liver microsomes, amodiaquine 1 μM, 37° C.
T2 construct: from tissue; host or cells: human liver microsomes
T2 sequence (P10632 1-490): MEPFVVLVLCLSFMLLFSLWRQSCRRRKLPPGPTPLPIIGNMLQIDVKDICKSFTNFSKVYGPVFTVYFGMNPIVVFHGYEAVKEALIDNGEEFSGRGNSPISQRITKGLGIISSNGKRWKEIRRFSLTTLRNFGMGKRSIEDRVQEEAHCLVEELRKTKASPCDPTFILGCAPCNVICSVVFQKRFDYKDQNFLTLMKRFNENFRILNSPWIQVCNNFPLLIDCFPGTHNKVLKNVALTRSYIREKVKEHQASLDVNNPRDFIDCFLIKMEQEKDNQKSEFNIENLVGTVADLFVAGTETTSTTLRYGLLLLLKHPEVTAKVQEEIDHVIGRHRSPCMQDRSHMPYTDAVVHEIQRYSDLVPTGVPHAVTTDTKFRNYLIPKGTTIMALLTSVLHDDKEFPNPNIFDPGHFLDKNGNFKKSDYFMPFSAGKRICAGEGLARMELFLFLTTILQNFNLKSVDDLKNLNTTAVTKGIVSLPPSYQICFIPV
Description: The inhibition of cytochrome P450 2C8-isoenzyme catalyzed deethylation of amodiaquine by the test compound is assayed at 37° C. with human liver microsomes. All assays are carried out on a robotic system in 96 well plates. The final incubation volume contains TRIS buffer (0.1 M), MgCl2 (5 mM), human liver microsomes (0.05 mg/mL), amodiaquine (1 μM) and the test compound at five different concentrations or no compound (high control) in duplicate (e.g. highest concentration 10-50 μM with subsequent serial 1:4 dilutions). Following a short preincubation period, reactions are started with the cofactor (NADPH, 1 mM) and stopped by cooling the incubation down to 8° C. and subsequently by addition of one volume of acetonitrile. An internal standard solution—the stable isotope d5-desethylamodiaquine—is added after quenching of incubations. Peak area analyte (=metabolite formed) and internal standard is determined by LC-MS/MS. The resulting peak area ratio analyte to internal standard in these incubations is compared to a control activity containing no test compound. Within each of the assay runs, the IC50 of a positive control inhibitor (Montelukast) is determined. Experimental IC50 values are calculated by least square regression according to the following equation: % control activity=(100% control activity/(1+(I/IC50)S))−B with I=inhibitor concentration; S=slope factor; B=background activity (lower plateau of the inhibition curve)
as §1

[4] = Aqueous solubility in buffer vs acetonitrile/water (1/1), LC-UV; format: physicochemical; conditions: kinetic from dmso stock, buffer pH 2.2, 24 h shaking, 2.5% DMSO
Description: The aqueous solubility of the compounds of the invention is determined by comparing the amount dissolved in buffer to the amount in an acetonitrile/water (1/1) solution. Starting from a 10 mM DMSO stock solution aliquots are diluted with acetonitrile/water (1/1) or buffer, respectively. After 24 h of shaking, the solutions are filtrated and analyzed by LC-UV. The amount dissolved in buffer is compared to the amount in the acetonitrile solution.
Solubility is usually being measured from 0.001 to 0.125 mg/mL at a DMSO concentration of 2.5%. If more than 90% of the compound is dissolved in buffer, the value is marked with “>”.

human GPR40 receptor, sequence (O14842 whole entry): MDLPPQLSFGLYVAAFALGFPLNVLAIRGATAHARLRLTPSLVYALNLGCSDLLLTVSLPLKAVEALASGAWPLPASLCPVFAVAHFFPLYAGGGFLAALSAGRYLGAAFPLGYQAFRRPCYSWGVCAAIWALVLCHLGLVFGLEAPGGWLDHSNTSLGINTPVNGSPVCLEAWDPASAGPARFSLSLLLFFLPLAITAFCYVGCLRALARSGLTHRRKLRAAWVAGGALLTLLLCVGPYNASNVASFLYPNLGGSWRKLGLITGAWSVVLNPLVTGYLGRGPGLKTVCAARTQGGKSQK
T1 sequence (P11712 whole entry): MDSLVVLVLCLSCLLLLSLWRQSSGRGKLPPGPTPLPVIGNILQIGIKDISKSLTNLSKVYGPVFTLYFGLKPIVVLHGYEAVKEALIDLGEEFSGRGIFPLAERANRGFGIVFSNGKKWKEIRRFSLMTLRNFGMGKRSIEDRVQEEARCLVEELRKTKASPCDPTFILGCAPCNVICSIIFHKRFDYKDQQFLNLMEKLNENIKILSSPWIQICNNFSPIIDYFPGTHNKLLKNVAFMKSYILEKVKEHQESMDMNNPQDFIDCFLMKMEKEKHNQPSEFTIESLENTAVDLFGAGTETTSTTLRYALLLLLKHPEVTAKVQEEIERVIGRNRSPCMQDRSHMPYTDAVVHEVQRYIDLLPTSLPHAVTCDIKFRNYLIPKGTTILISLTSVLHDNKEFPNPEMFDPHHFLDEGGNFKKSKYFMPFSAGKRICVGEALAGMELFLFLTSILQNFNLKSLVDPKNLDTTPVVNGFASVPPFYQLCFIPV

## Cc1cc(-c2nnn(C)n2)cc(C)c1-c1cccc2c1CC[C@H]2Nc1ccc(C2C[C@@H]2C(=O)O)cn1 (mixture of isomers) [Example 5, trans-2-(6-{(R)-4-[2,6-Dimethyl-4-(2-methyl-2H-tetrazol-5-yl)-phenyl]-indan-1-ylamino}-pyridin-3-yl)-cyclopropanecarboxylic acid]
[1]
  EC50: 16 nM
[2]
  IC50: 48000 nM
[3]
  IC50: 12000 nM

## Cc1cc(OCCC(C)(C)O)cc(C)c1-c1cccc2c1CC[C@H]2Nc1ccc(C2C[C@@H]2C(=O)O)cn1 (mixture of isomers) [Example 6, trans-2-(6-{(R)-4-[4-(3-Hydroxy-3-methyl-butoxy)-2,6-dimethyl-phenyl]-indan-1-ylamino}-pyridin-3-yl)-cyclopropanecarboxylic acid]
[1]
  EC50: 19 nM
[2]
  IC50: > 50000 nM
[3]
  IC50: > 50000 nM

## Cc1cc(-c2nnn(C)n2)cc(C)c1-c1ccc(F)c2c1CC[C@H]2Nc1ccc(C2C[C@@H]2C(=O)O)cn1 (mixture of isomers) [Example 7, trans-2-(6-{(R)-4-[2,6-Dimethyl-4-(2-methyl-2H-tetrazol-5-yl)-phenyl]-7-fluoro-indan-1-ylamino}-pyridin-3-yl)-cyclopropanecarboxylic acid]
[1]
  EC50: 19 nM
[2]
  IC50: > 50000 nM
[3]
  IC50: 38000 nM

## Cc1cc(OCCC(C)(C)O)cc(C)c1-c1ccc(F)c2c1CC[C@H]2Nc1ccc(C2C[C@@H]2C(=O)O)cn1 (mixture of isomers) [Example 8, trans-2-(6-{(R)-7-Fluoro-4-[4-(3-hydroxy-3-methyl-butoxy)-2,6-dimethyl-phenyl]-indan-1-ylamino}-pyridin-3-yl)-cyclopropanecarboxylic acid]
[1]
  EC50: 16 nM
[2]
  IC50: > 50000 nM
[3]
  IC50: > 50000 nM

## Cc1cc(-c2nnn(C)n2)cc(C)c1-c1ccc(F)c2c1CC[C@H]2Nc1ccc([C@H]2C[C@@H]2C(=O)O)cn1 [Example 3, (1S,2S)-2-(6-{(R)-4-[2,6-Dimethyl-4-(2-methyl-2H-tetrazol-5-yl)-phenyl]-7-fluoro-indan-1-ylamino}-pyridin-3-yl)-cyclopropanecarboxylic acid]
[1]
  EC50: 4 nM
[2]
  IC50: > 50000 nM
[4]
  solubility at 24 h: 91 µg/mL (≈ 183 µM)
[3]
  IC50: 19000 nM

## Cc1cc(-c2nnn(C)n2)cc(C)c1-c1cccc2c1CC[C@H]2Nc1ccc([C@@H]2C[C@H]2C(=O)O)cn1 [Example 9, (1R,2R)-2-(6-{(R)-4-[2,6-Dimethyl-4-(2-methyl-2H-tetrazol-5-yl)-phenyl]-indan-1-ylamino}-pyridin-3-yl)-cyclopropanecarboxylic acid]
[1]
  EC50: 259 nM

## Cc1cc(OCCC(C)(C)O)cc(C)c1-c1cccc2c1CC[C@H]2Nc1ccc([C@@H]2C[C@H]2C(=O)O)cn1 [Example 10, (1R,2R)-2-(6-{(R)-4-[4-(3-Hydroxy-3-methyl-butoxy)-2,6-dimethyl-phenyl]-indan-1-ylamino}-pyridin-3-yl)-cyclopropanecarboxylic acid]
[1]
  EC50: 497 nM

## Cc1cc(OCCC(C)(C)O)cc(C)c1-c1ccc(F)c2c1CC[C@H]2Nc1ccc([C@@H]2C[C@H]2C(=O)O)cn1 [Example 12, (1R,2R)-2-(6-{(R)-7-Fluoro-4-[4-(3-hydroxy-3-methyl-butoxy)-2,6-dimethyl-phenyl]-indan-1-ylamino}-pyridin-3-yl)-cyclopropanecarboxylic acid]
[1]
  EC50: 568 nM

## Cc1cc(O[C@H]2CCOC2)cc(C)c1-c1ccc(F)c2c1CC[C@H]2Nc1ccc([C@H]2C[C@@H]2C(=O)O)cn1 [Example 13]
[1]
  EC50: 27 nM
[2]
  IC50: > 50000 nM
[4]
  solubility at 24 h: 115 µg/mL (≈ 229 µM)
[3]
  IC50: 49000 nM

## Cc1cc(-c2nnn(CC(C)(C)O)n2)cc(C)c1-c1ccc(F)c2c1CC[C@H]2Nc1ccc([C@H]2C[C@@H]2C(=O)O)cn1 [Example 14]
[1]
  EC50: 4 nM
[2]
  IC50: > 50000 nM
[4]
  solubility at 24 h: 83 µg/mL (≈ 149 µM)
[3]
  IC50: 45000 nM

## Cc1cc(OC2CCOCC2)cc(C)c1-c1ccc(F)c2c1CC[C@H]2Nc1ccc([C@H]2C[C@@H]2C(=O)O)cn1 [Example 15]
[1]
  EC50: 18 nM
[2]
  IC50: > 50000 nM
[3]
  IC50: 26000 nM

## Cc1cc(C(=O)O)cc(C)c1-c1ccc(F)c2c1CC[C@H]2Nc1ccc([C@H]2C[C@@H]2C(=O)O)cn1 [Example 40]
[1]
  EC50: 940 nM
[2]
  IC50: > 50000 nM
[3]
  IC50: > 50000 nM

## Cc1cc(OCC2(O)CCS(=O)(=O)CC2)cc(C)c1-c1ccc(F)c2c1CC[C@H]2Nc1ccc([C@H]2C[C@@H]2C(=O)O)cn1 [Example 64]
[1]
  EC50: 29 nM
[2]
  IC50: > 50000 nM
[3]
  IC50: > 50000 nM

## Cc1cc(OC2CCOCC2)cc(C)c1-c1cccc2c1CC[C@H]2Nc1ccc([C@H]2C[C@@H]2C(=O)O)cn1 [Example 77]
[1]
  EC50: 20 nM

## Cc1cc(OCC(C)(C)O)cc(C)c1-c1cccc2c1CC[C@H]2Nc1ccc([C@H]2C[C@@H]2C(=O)O)cn1 [Example 79]
[1]
  EC50: 23 nM

## Cc1cc(OCC(C)(C)C#N)cc(C)c1-c1cccc2c1CC[C@H]2Nc1ccc([C@H]2C[C@@H]2C(=O)O)cn1 [Example 80]
[1]
  EC50: 22 nM

## Cc1cc(-c2ccn(C)c(=O)c2)cc(C)c1-c1cccc2c1CC[C@H]2Nc1ccc([C@H]2C[C@@H]2C(=O)O)cn1 [Example 81]
[1]
  EC50: 8 nM

## Cc1cc(-c2ccc(=O)n(C)c2)cc(C)c1-c1cccc2c1CC[C@H]2Nc1ccc([C@H]2C[C@@H]2C(=O)O)cn1 [Example 82]
[1]
  EC50: 18 nM

## Cc1cc(-c2cc(=O)n(C)cn2)cc(C)c1-c1cccc2c1CC[C@H]2Nc1ccc([C@H]2C[C@@H]2C(=O)O)cn1 [Example 83]
[1]
  EC50: 8 nM

## COc1cc(F)c(-c2cccc3c2CC[C@H]3Nc2ccc([C@H]3C[C@@H]3C(=O)O)cn2)c(F)c1 [Example 84]
[1]
  EC50: 212 nM

## O=C(O)[C@H]1C[C@@H]1c1ccc(N[C@@H]2CCc3c(-c4ccccc4C(F)(F)F)cccc32)nc1 [Example 85]
[1]
  EC50: 91 nM

## Cc1cc(C(=O)N(C)C)cc(C)c1-c1cccc2c1CC[C@H]2Nc1ccc([C@H]2C[C@@H]2C(=O)O)cn1 [Example 86]
[1]
  EC50: 174 nM
